How the values were obtained:
[1] = system: Rattus norvegicus; test: In vivo tumor distribution of total doxorubicin after 6 hr intravenous administration of 2.5 mg/kg of compound in rat bearing Walker 256 cells; format: ADME, organism-based; design: dose 2.5 mg/kg, route intravenous
[2] = system: Rattus norvegicus; test: In vivo spleen distribution of total doxorubicin after 6 hr intravenous administration of 2.5 mg/kg of compound in rat bearing Walker 256 cells; format: ADME, organism-based; design: dose 2.5 mg/kg, route intravenous
[3] = system: Rattus norvegicus; test: In vivo liver distribution of free doxorubicin after 6 hr intravenous administration of 2.5 mg/kg of compound in rat bearing Walker 256 cells; format: ADME, organism-based; design: dose 2.5 mg/kg, route intravenous
[4] = system: Rattus norvegicus; test: In vivo heart distribution of free doxorubicin after 6 hr intravenous administration of 2.5 mg/kg of compound in rat bearing Walker 256 cells; format: ADME, organism-based; design: dose 2.5 mg/kg, route intravenous
[5] = system: Rattus norvegicus; test: In vivo tumor distribution of free doxorubicin after 6 h intravenous administration of 2.5 mg/kg of compound in rat bearing Walker 256 cells; format: ADME, organism-based; design: dose 2.5 mg/kg, route intravenous
[6] = system: Rattus norvegicus; test: In vivo plasma distribution of total doxorubicin after 6 hr intravenous administration of 2.5 mg/kg of compound in rat bearing Walker 256 cells; format: ADME, organism-based; design: dose 2.5 mg/kg, route intravenous
[7] = system: Rattus norvegicus; test: In vivo plasma distribution of free doxorubicin after 6 h intravenous administration of 2.5 mg/kg of compound in rat bearing Walker 256 cells; format: ADME, organism-based; design: dose 2.5 mg/kg, route intravenous
[8] = system: Rattus norvegicus; test: In vivo liver distribution of total doxorubicin after 6 h intravenous administration of 2.5 mg/kg of compound in rat bearing Walker 256 cells; format: ADME, organism-based; design: dose 2.5 mg/kg, route intravenous
[9] = species: Rattus norvegicus; test: Effective dose was measured in rats; format: functional

## COc1cccc2c1C(=O)c1c(O)c3c(c(O)c1C2=O)C[C@@](O)(C(=O)CO)C[C@@H]3O[C@H]1C[C@H](N)[C@H](O)[C@H](C)O1 [DOXORUBICIN]
[1]
  Dose/g tissue: 0.35%
[2]
  Dose/g tissue: 2.21%
[3]
  Dose/g tissue: 0.56%
[4]
  Dose/g tissue: 1.13%
[5]
  Dose/g tissue: 0.24%
[6]
  Dose/g tissue: 0%
[7]
  Dose/g tissue: 0%
[8]
  Dose/g tissue: 0.54%
[9]
  ED50: 1.17 mg/kg

— ChEMBL document CHEMBL1133073, “Structure-activity relationships of carboxymethylpullulan-peptide-doxorubicin conjugates--systematic modification of peptide spacers” (Bioorg Med Chem Lett, 2000)
